One data set deals with P. dicentrarchi. Also on record: method as in PMID 15212284, PMID 21987103, PMID 27334368. The conditions noted are these: cited from earlier work.
Data set [1] has as its system Philasterides dicentrarchi. The data set can be described thus: microbe, parasite or virus in culture. The conditions noted are these: for Ciliate Mortality 3 h (%) / parasites killed after 24 h: 100 μM, culture medium; for Ciliate Mortality 3 h (%): mean ± SD of three replicates; for mortality at 100 µM / GI50 / inhibition at 100 µM: Philasterides dicentrarchi; for Ciliate Mortality 3 h (%) / mortality at 100 µM: 3 h; for mortality at 100 µM: read-out: Ciliate Mortality 3 h (%), 100 μM, 3 h, culture medium, mean ± SD of three replicates; for inhibition at 100 µM: read-out: Growth Inhibition 24 h (%), 100 μM, 24 h, culture medium, mean ± SD of three replicates; for effect on the ciliate (lysis, movement): microscopy observation. How it is done: P. dicentrarchi (isolate I1), obtained from an outbreak of scuticociliatosis in cultured turbot in Galicia, was routinely cultured at 18 °C in complete sterile L15 medium (Leibovitz, PAA Laboratories GmbH, 1% salinity, pH 7.2) containing 90 mg/L each of adenosine, cytidine, and uridine, 150 mg/L of guanosine, 5 g/L of glucose, 400 mg/L of L-α-phosphatidylcholine, 200 mg/L of Tween 80, 10% of heat-inactivated foetal bovine serum (FBS), and 10 mL/L of 100X antibiotic–antimycotic solution (100 units/mL of penicillin G, 0.1 mg/mL of streptomycin sulphate and 0.25 mg/mL of amphotericin B), as previously described. Alternatively, ciliates were cultured in seawater with autoclaved marine bacteria (10^6 cells/mL) supplied as food at 21 °C. The ciliates were cultured under normoxic conditions in tissue culture flasks fitted with vented caps that enabled aeration of the culture medium.
We tested the toxicity to P. dicentrarchi of 26 compounds of natural origin (Table 1). The compounds were prepared in 10 mM stock solutions in dimethyl sulfoxide (DMSO) and maintained at −20 °C until use. In addition, the Pseudomonas H6 lipopeptide surfactant (PS) was prepared, lyophilised and stored at −20 °C [37]. A stock solution of PS was prepared in distilled water (1000 ppm) and diluted in culture medium or seawater at the final concentrations used in each assay and sterile filtered (through 0.2 µm filters) before being added to the parasites or EPC cells.
The anticiliate activity was assayed as previously described, with minor modifications. Ciliates were concentrated by centrifugation at 650× g for 5 min and resuspended in a medium at the concentration required for the assays. All experiments were carried out in triplicate. Wells containing ciliates in a culture medium or seawater without the test compounds were assayed as negative controls. To rule out any possible effects of the solvent (DMSO), triplicate wells with a culture medium or seawater containing the highest concentration of DMSO used (up to 1%) were also included. […] In these assays, the compounds were diluted in 1 mL of culture medium or seawater and added to the wells of 24-well sterile culture plates containing 2.5 × 10^4 ciliates per well, at final concentrations of […], 6.25, 12.5, 25, 50, and 100 µM in culture medium. The effects of the compounds on the motility and morphology of the ciliates were monitored periodically (at 30 min, 1, 2, 3, 24, and 48 h) under an inverted optical microscope. Ciliates were considered dead when they lysed and were not motile. The results obtained are expressed as percentage mortality for each experimental group. To estimate the total number of ciliates per well, the ciliates were inactivated by adding 0.25% glutaraldehyde and counted in a haemocytometer under an optical microscope. The lowest dose of the selected compounds resulting in 100% ciliate mortality (LC100) was assessed at 1, 2, and 3 h after incubation of parasites with sample dilutions (from 0 to 100 μg/mL, in 10 μg intervals). The concentration that inhibited 50% of ciliate growth (GI50), in comparison with the control group, was calculated with Excel software (Microsoft Office; Microsoft, Redmond, WA, USA) by plotting the dose-response data (log dose-per cent of growth inhibition) and applying linear regression (y = mx + b) for data fitting. The values were then calculated from the equation log GI50 = (50 − b)/m, where m is the slope y1 − y2/x1 − x2, and b is the intercept of the line.

Data set [2] deals with Philasterides dicentrarchi. The data set can be described thus: Anticiliate activity, ciliates maintained in seawater (LC100, LC50). The format is cell-based. The conditions noted are these: 3 h incubation. How it is done: All experiments were carried out in triplicate.
Data set [3] in a line: Toxicity to EPC cell line, MTT assay. It is filed as cell-based, fish. The conditions noted are these: fish. How it is done:
(§1) We used the Epithelioma Papulosum Cyprini (EPC) cell line, acquired from the American Type Culture Collection (ATCC®, Manassas, VA, USA), as a control for toxicity. The cell line, kindly provided by Doctors Pereira-Dopazo and Bandin from the Aquaculture Institute of the University of Santiago de Coompostela, was cultured in MEM medium equilibrated with Hanks’ balanced salts (Gibco, Thermo Fischer Sci., Waltham, MA, USA) supplemented with 10% foetal bovine serum and 10 mL/L of 100X antibiotic–antimycotic solution. Cells were maintained subconfluent at 25 °C in a cell culture incubator and used when the confluence reached 75%.
(§2) Cell viability was then estimated by the MTT (3-(4,5-dimethylthiazol-2-yl)-2,5-diphenyl tetrazolium bromide) assay, as previously described, with minor modifications. Briefly, 100 μL of the MTT solution (1 mg/mL in phosphate-buffered saline; pH 7.2) was added to each well, and plates were incubated at 25 °C for 4 h. The yellow tetrazolium salt of MTT is reduced by mitochondrial dehydrogenases in metabolically active cells to form insoluble purple formazan crystals, which are then dissolved by the addition of DMSO (50 μL/well). Prior to the addition of MTT or DMSO, the plates were washed, and the supernatant was removed. The absorbance was measured at 540 nm in a microplate reader (Multiskan™, Thermo Fischer Sci., Waltham, MA, USA), and the relative cell viability was expressed as the mean percentage of viable cells relative to untreated cells.
(§3) In the viability assay, the possible effect of DMSO was evaluated for each compound by the inclusion of three replicate wells with MEM medium and the same DMSO concentration as in the medium. […] Control cells with only MEM were also included in the assay.
(Tetrazolium assays rely on reduction of a dye to a coloured formazan, in cell work by metabolically active cells.)

The test system of the next data set is EPC cells. Kind of data set: Toxicity to EPC cell line, MTT assay. The format is cell-based, fish. The conditions noted are these: 24 h incubation, compound at its GI50 (24 h). The method, then: as §1, §2, §3
In a further data set the test system is Amyloodinium ocellatum. Also on record: method as in PMID 32154278. The following applies: 24 h incubation period; cited from earlier work.
For the next data set, the system named is Saprolegnia delica. Also on record: method as in PMID 32154278. The conditions noted are these: 0.1 mM; cited from earlier work.
In a further data set the test system is S. parasitica. More on the design: method as in PMID 32154278. The conditions noted are these: 0.1 mM; cited from earlier work.
For another data set, the system named is rainbow trout. Also on record: method as in PMID 17979099. The conditions noted are these: 100 to 2000 ppm in the diet for four weeks; cited from earlier work.
In the next data set the test system is Gyrodactylus kobayashii. Also on record: method as in doi:10.1016/j.aquaculture.2021.736372. The conditions noted are these: exposure to 2.0 μg/mL; cited from earlier work.
A further data set concerns goldfish. Also on record: method as in doi:10.1016/j.aquaculture.2021.736372. The following applies: cited from earlier work.
[4] abbreviates: 24 h, read-out: GI50 24 h (compound concentration that inhibited 50% of parasite growth).
[5] abbreviates: 48 h, read-out: GI50 48 h (compound concentration that inhibited 50% of parasite growth).
Where [6] appears, read: 3 h incubation, compound at its GI50 (24 h), MTT, read-out: EPC Cell Viability (%) Mean ± SD.
The mark [7] stands for this setting: 24 h incubation, compound at its GI50 (24 h), MTT, read-out: EPC Cell Viability (%) Mean ± SD.

We go through nine molecules from article PMC8880129, “Plant- and Bacteria-Derived Compounds with Anti-Philasterides dicentrarchi Activity” (Pathogens, 2022).

In general, mortality refers to the share of the test organisms that died. For orientation: inhibition means how much of the control response was suppressed. The term viability denotes a per cent measure of how many cells are alive, often set against a control.

Each structure is given as a SMILES string. Values joined by “and” are separate entries in the source; they are usually repeats but may differ in a detail not shown here. Identical values can stand only once. Like-named read-outs stand apart in the source and are kept apart here.

Regarding `O=C(O[C@@H]1Cc2c(O)cc(O)cc2O[C@@H]1c1cc(O)c(O)c(O)c1)c1cc(O)c(O)c(O)c1` [epigallocatechin gallate], in the data set on P. dicentrarchi, the “efficacy against P. dicentrarchi” value is “effective”.
As for `C[C@H]1CC[C@]2(NC1)O[C@H]1C[C@H]3[C@@H]4CC[C@H]5C[C@@H](O[C@@H]6O[C@H](CO)[C@H](O[C@@H]7O[C@H](CO)[C@@H](O)[C@H](O[C@@H]8OC[C@@H](O)[C@H](O)[C@H]8O)[C@H]7O[C@@H]7O[C@H](CO)[C@@H](O)[C@H](O)[C@H]7O)[C@H](O)[C@H]6O)CC[C@]5(C)[C@H]4CC[C@]3(C)[C@H]1[C@@H]2C` [Tomatine], in [1], the “Ciliate Mortality 3 h (%)” value turned out to be 93.33 ± 2.31%; the mortality at 100 µM is more than 90%; the “effect on the ciliate (lysis, movement)” value is “very quick lysis of the ciliate”. In addition, in data set [1] (24 h), the “parasites killed after 24 h” value is given as “killed all the parasites” and the inhibition at 100 µM was found to be 100%. For the same molecule, the GI50 in [1] (setting [4]) was 10.1 ± 1.27 µM. The GI50 in data set [1] (setting [5]) came out at 8.51 ± 0.2 µM. Also, in data set [2], the “LC100 (lowest concentration resulting in 100% ciliate mortality)” value was found to be 10 µM. In data set [3] (setting [6]), the viability at 3 h was determined as 63 ± 6.82%. Besides, in data set [3] (setting [7]), the viability at 24 h was determined as 57.6 ± 7.7%. The molecule also yielded an EPC cells killed in the data set with EPC cells of 43%. Also, in the data set on Amyloodinium ocellatum, the “doses inhibiting dinospore motility” value is 6.25–50 μg/mL and 0.006–0.05 mM. In the data set on Saprolegnia delica, the “growth of Saprolegnia delica” value was “inhibited”. The “radial growth of S. parasitica” value in the data set with S. parasitica is given as “inhibited”. Further, in the data set with rainbow trout, the “toxic effects of administration in the diet” value is “did not have toxic effects”.
As for `O=C(/C=C/c1ccccc1)c1ccc(O)cc1O` [2′,4′-dihydroxychalcone], in data set [1], the “Ciliate Mortality 3 h (%)” value was 99 ± 0.71% and the mortality at 100 µM was more than 90%. Also, in [1] (24 h), the “parasites killed after 24 h” value is on record as “killed all the parasites” and the inhibition at 100 µM amounted to 100%. For the same molecule, in [1] (setting [4]), the GI50 was determined as 7.54 ± 1.31 µM. Also, the GI50 in data set [1] (setting [5]) turned out to be 5.68 ± 0.16 µM. Besides, the “LC100 (lowest concentration resulting in 100% ciliate mortality)” value in data set [2] worked out at 70 µM. Further, in data set [3], the viability at 3 h was 92 ± 2.5% and the viability at 24 h is 89.7 ± 1.4%. Further, in the data set with EPC cells, the EPC cells killed entry is given as “about 10%”.
For the molecule `Oc1ccc(/C=C/c2cc(O)cc(O)c2)cc1` [resveratrol], in the data set on P. dicentrarchi, the “efficacy against P. dicentrarchi” value is reported as “effective”.
Turning to `COc1cc(/C=C/C(=O)CC(=O)/C=C/c2ccc(O)c(OC)c2)ccc1O` [curcumin], the “efficacy against P. dicentrarchi” value in the data set on P. dicentrarchi was “effective”.
With `CC1=CC(=O)c2c(O)cccc2C1=O` [Plumbagin], in [1], the “Ciliate Mortality 3 h (%)” value came out at 100%; the mortality at 100 µM was more than 90%; the “effect on the ciliate (lysis, movement)” value is “inhibited the ciliate movement, but it did not cause cell lysis for several hours”. In data set [1] (24 h), the “parasites killed after 24 h” value is on record as “killed all the parasites” and the inhibition at 100 µM is 100%. Moreover, the GI50 in data set [1] (setting [4]) worked out at 12.9 ± 1.16 µM. Also, the GI50 in data set [1] (24 h, read-out: GI50 24 h expressed in μg/mL) stood at 2.42 µg/mL. The GI50 in [1] (setting [5]) turned out to be 9.65 ± 0.67 µM. Also, the “LC100 (lowest concentration resulting in 100% ciliate mortality)” value in data set [2] was determined as 30 µM. In data set [3] (setting [6]), the viability at 3 h worked out at 78.7 ± 1.4%. Also, the viability at 24 h in [3] (setting [7]) was 74.2 ± 3.94%. Also, the EPC cells killed in the data set with EPC cells turned out to be 26%. Also, the “growth of Saprolegnia delica” value with Saprolegnia delica is “inhibiting”. In the data set with Gyrodactylus kobayashii, the “time to complete death of Gyrodactylus kobayashii” value is reported as not above 45 min. The “concentration toxic to goldfish” value with goldfish is recorded as “higher than 0.5 mg/L”.
`O=c1c2cc(O)c(O)cc2oc2cc(O)c([C@@H]3O[C@H](CO)[C@@H](O)[C@H](O)[C@H]3O)c(O)c12` [mangiferin]: in the data set on P. dicentrarchi, the “efficacy against P. dicentrarchi” value was “effective”.
`COc1cc2c(cc1OC)-c1cc3ccc(OC)c(OC)c3c[n+]1CC2` [Palmatine chloride]: the mortality at 100 µM in [1] turned out to be 6.8 ± 0.59%. For the same molecule, the inhibition at 100 µM in data set [1] (24 h) worked out at 28.5 ± 4.25%.
Regarding `O=C(O)CCCC[C@@H]1SC[C@@H]2NC(=O)N[C@@H]21` [Biotin], in data set [1], the mortality at 100 µM was found to be 0%. Further, the inhibition at 100 µM in data set [1] (24 h) came out at 37 ± 0.72%.
